Results taken from paper PMC7795662, “Alkaloids with Anti-Onchocercal Activity from Voacanga africana Stapf (Apocynaceae): Identification and Molecular Modeling” (Molecules, 2020).
pIC50: −log10 of the molar value. Read-outs that look alike come from different tables or passages of the source.

Assays:
[1] = tested on: Onchocerca ochengi microfilariae; experiment: O. ochengi microfilariae (Mf) motility assay, primary and secondary screens; format: cell-based; settings: for inhibition at 30 µM / pIC50: Onchocerca ochengi; for inhibition at 30 µM: 24 h, read-out: % Mf Motility Reduction after 24 h; for pIC50: read-out: IC50 Mf; for effect on motility of microfilariae (in words): dose-dependent manner; for SI Mf: selectivity index = IC50 on LLC-MK2 cells (CC50) / IC50 on parasites; for % Mf Motility Reduction after 24 h: positive control
Experimental: Briefly, Mf were prepared using the method described by Cho-Ngwa et al., with slight modifications. A few skin snips were obtained from different locations and incubated in aliquots of culture medium for 15 min, after which the emergent Mf were qualified and quantified using an inverted microscope and standard atlases. The leftover pieces of skin were shaved, rinsed, sterilized with 70% ethanol and sliced into thin slivers. The slivers were incubated in CCM for 2 h, and the emergent highly motile O. ochengi Mf were concentrated by centrifugation. The Mf were transferred to 96-well micro titer plates (15 Mf/100 μL/well) containing a fully confluent LLC-MK2 cell layer in 100 μL of CCM. This was monitored for viability and sterility for 24 h before addition of test and control compounds.
The biological assays were conducted in duplicate in the 96-well microtiter plates. The Mf were incubated with the drug for 120 h in a total of 200 μL of medium. Mf viability was assessed by microscopy once every day and motility inhibition scores were recorded. […] Motility inhibition correlates to drug activity. The positive control drug was amorcazine at 30 μM, and negative control was the diluent (DMSO).
Compounds showing 100% activity in the primary screens were re-tested as described under primary screens to determine the IC50 values. All assays were repeated at least once. The selectivity index (SI) of each extract was calculated as the ratio of the IC50 of the extract on the mammalian cell (termed CC50) to the IC50 on parasites.

[2] = tested on: Onchocerca ochengi adult male worms; experiment: O. ochengi adult male worm motility assay, primary and secondary screens; format: cell-based; settings: for pIC50: Onchocerca ochengi, read-out: IC50 Adult Male Worm; for effect on motility of adult male worms (in words): dose-dependent manner; for IC100 Adult Male Worm: secondary screen; for SI Adult Male Worm: selectivity index = IC50 on LLC-MK2 cells (CC50) / IC50 on parasites
Experimental: (§1) The isolation of O. ochengi adult worms was performed as described previously by Cho-Ngwa et al.. Briefly, fresh pieces of umbilical cattle skin with palpable nodules bought from butchery in Douala, Cameroon were washed, drained and sterilized with 70% ethanol. The worms were carefully scraped out of the nodules as single masses and temporarily submerged in 1 mL complete culture medium, CCM [RPMI-1640 (Sigma-Aldrich, St. Louis, MO, USA) supplemented with 25 mM HEPES, 2 g/L sodium bicarbonate, 2 mM L-glutamine, 5% newborn calf serum (SIGMA, St. Louis, MO, USA), 150 units/mL penicillin, 150 µg/mL streptomycin and 0.5 µg/mL amphotericin B (SIGMA, St. Louis, MO, USA), pH 7.4)] using 24-well plates. The adult worms were incubated in the culture medium overnight in a CO2 incubator, during which period the male worms migrated out of the nodular masses. Only wells containing viable worms received treatment with test compounds. Damaged worms and worms from putrefied nodules were discarded. The viability of worms retained for the assay was ascertained by visual and microscopic examination of adult male worm motility using an inverted microscope.
(§2) The compounds were tested on […] at a single concentration of 30 μM, in duplicate wells. […] The female worms were removed and incubated in 500 μL of 0.5 μg/mL MTT for the last 30 min of incubation. Inhibition of formazan formation from MTT directly correlates with worm death. The worms were blotted on absorbent paper and observed visually for blue coloration against a white background. […] Auranofin at 10 μM, which had previously shown activity against O. ochengi adult worms and Mf, was used as a positive control, while negative control wells received the diluent, 2% DMSO only, previously shown to have no effect on parasite viability. The solvent DMSO (2%) was used as a negative control. […] Furthermore, the toxicity of DMSO decreases with dilution.
Adult male worm motility was evaluated with the aid of an inverted microscope.
(§3) The pure compounds with 100% activity at primary screens were re-tested as described under primary screens, in order to determine the IC50 values. The IC50 assays were performed in triplicate and each experiment repeated for confirmation. The means of all activities at a concentration were calculated and used in the statistical analyses. GraphPadPrism version 6.0 (GraphPad Software, San Diego, CA, USA) was used to generate dose response curves from which the IC50 values were obtained.

[3] = tested on: Onchocerca ochengi adult female worms; experiment: O. ochengi adult female worm viability, MTT/formazan assay; format: cell-based; settings: for killing at 30 µM: read-out: % Adult Female Worm Death after 120 h; for activity on adult female worms (in words): biochemical assessment at 30 μM; for IC100 Adult Female Worm: secondary screen
Experimental: as §1, §2, §3

[4] = tested on: Monkey kidney epithelial cells (LLC-MK2); experiment: Cytotoxicity on monkey kidney epithelial cells, microscopic; format: cell-based; settings: Primates, LLC-MK2, 120 h, read-out: IC50 Monkey Kidney Cells (LLC-MK2)
Experimental: Monkey kidney epithelial cells (LLC-MK2) (ATCC, Manassas, VA, USA) were cultured at 37 °C in humidified air with 5% CO2 in a Hera Cell-150 incubator (Thermo Electron, Karlsruhe, Germany) until the cell layer was almost confluent. The cell suspension was dispensed into 96-well micro titer plates (200 µL/well) and kept in the incubator for 3–5 days for cells to grow and become fully confluent. These cells served as feeder layers for the Mf assays and were also used for cytotoxicity studies.
Cytotoxicity of the pure compounds with anti-onchocercal activities was assessed on LLC-MK2 cells, microscopically, on day 5 of the Mf assay. Living cells were flattened out and attached to the culture plate, while dead cells were rounded up and detached from the plate. The IC50 values for these cells were estimated from the morphological deformation data.

[5] = tested on: Onchocerca ochengi adult male worms; experiment: O. ochengi adult male worm motility assay, primary and secondary screens; format: cell-based; settings: for inhibition at 30 µM: Onchocerca ochengi, 24 h, read-out: % Adult Male Worm Motility Reduction after 24 h
Onchocerca ochengi = tested on: Onchocerca ochengi; set-up: method as in earlier work; settings: from stem bark of V. africana; cited from earlier work
[6] = cytotoxicity, day 5, estimated from morphological deformation

| Compound | inhibition at 30 µM ([1]; primary screen, 30 μM) [%] | pIC50 ([1]; secondary screen, motility) | effect on motility of microfilariae (in words) [1] | IC100 Mf ([1]; secondary screen) [µM] | SI Mf [1] | pIC50 [2] | effect on motility of adult male worms (in words) [2] | IC100 Adult Male Worm [2] [µM] | SI Adult Male Worm [2] | killing at 30 µM ([3]; Onchocerca ochengi, 120 h) [%] | activity on adult female worms (in words) [3] | IC100 Adult Female Worm [3] [µM] | pIC50 [4, 6] | inhibition at 30 µM [5] [%] | inhibition at 30 µM [1] [%] | further results |
| --- | --- | --- | --- | --- | --- | --- | --- | --- | --- | --- | --- | --- | --- | --- | --- | --- |
| CC[C@H]1CC2CN3CCc4c([nH]c5ccc(OC)cc45)[C@](C(=O)OC)(C2)[C@H]13 (stereo in doubt) [Compound 2, voacangine] | 100 | 5.26 | inhibit the motility | 10 | 5.46 | 5.04 | inhibit the motility | 20 | 3.30 | 100 | moderately active | >30 | ≤ 4.52 | 100 |  | activity against Onchocerca ochengi (in words) (Onchocerca ochengi): showing activity |
| CC(=O)OC[C@H]1O[C@@H]([S-])[C@H](OC(C)=O)[C@@H](OC(C)=O)[C@@H]1OC(C)=O.CCP(CC)CC.[Au+] [Auranofin, reference compound] |  |  |  |  |  |  |  |  |  |  |  |  |  |  |  | % Mf Motility Reduction after 24 h ([1]; 10 μM): 100%; % Adult Female Worm Death after 120 h ([3]; positive control, 10 μM, % inhibition of formazan formation): 100%; % Adult Male Worm Motility Reduction after 24 h ([5]; positive control, 10 μM): 100% |
| C/C=C1\CN(C)C2Cc3c([nH]c4ccccc34)[C@@H](c3cc4[nH]c5c(c4cc3OC)CCN3CC4C[C@H](CC)C3[C@@]5(C(=O)OC)C4)CC1C2C(=O)OC (stereo partly drawn) [Compound 1, voacamine A] |  | 5.43 | inhibit the motility | 7.38 | 8.13 | 5.35 | inhibit the motility | 8.90 | 6.74 | 65 | moderately active | >30 | ≤ 4.52 | 100 | 100 |  |
| COC(=O)[C@@]12C[C@@H]3C[C@H]([C@H](C)O)[C@@H]1N(CCc1c2[nH]c2ccc(OC)cc12)C3 [Compound 3, voacristine] | 100 | 5.36 | inhibit the motility | 8.68 | 6.91 | 5.09 | inhibit the motility | 16.14 | 3.71 | 50 | moderately active | >30 | ≤ 4.52 | 100 |  |  |
| CC[C@H]1C[C@@H]2CN3CCc4c([nH]c5ccccc45)[C@](C(=O)OC)(C2)[C@H]13 [Compound 4, coronaridine] | 100 | 5.38 | inhibit the motility | 8.42 | 7.13 | 5.06 | inhibit the motility | 17.36 | 3.45 | 50 | moderately active | >30 | ≤ 4.52 | 100 |  |  |
| CC[C@H]1C[C@@H]2C[C@H]3c4[nH]c5cc(OC)ccc5c4CC[N@@](C2)[C@@H]13 [Compound 5, tabernanthine] |  |  | almost inactive |  |  |  | almost inactive |  |  | 0 | almost inactive |  |  | 0 | 0 |  |
| COc1ccc2[nH]c3c(c2c1)CCN1CC2CC3C1C([C@H](C)O)C2 (stereo partly drawn) [Compound 6, iboxygaine] |  |  | inhibit the motility | 9.44 | 6.35 | 5.04 | inhibit the motility | 18.14 | 3.30 | 50 | moderately active | >30 |  | 100 | 100 | pIC50 [1]: 5.33; pIC50 [4]: ≤ 4.52 |
| C/C=C1/CN(C)C2Cc3c([nH]c4ccccc34)[C@@H](c3cc4[nH]c5c(c4cc3OC)CCN3CC4CC([C@H](C)O)C3[C@@]5(C(=O)OC)C4)CC1C2C(=O)OC (stereo partly drawn) [Compound 8, voacorine] |  |  | inhibit the motility | 4.98 | 12.04 | 5.46 | inhibit the motility | 6.90 | 8.69 | 50 | moderately active | >30 |  | 100 | 100 | pIC50 [1]: 5.60; pIC50 [4]: ≤ 4.52 |
| CN1CCN(C(=S)Nc2ccc(Nc3ccc([N+](=O)[O-])cc3)cc2)CC1 [amocarzine, reference compound] |  |  |  |  |  |  |  |  |  |  |  |  |  |  |  | inhibition at 10 µM ([3]; Onchocerca ochengi, 120 h, read-out: inhibition of formazan formation in adult female worms): 100% |
| Ivermectin [reference compound] |  |  |  |  |  |  |  |  |  |  |  |  |  |  |  | % Mf Motility Reduction after 24 h ([1]; 10 μg/mL): 100% |
